# Source: the supplement of paper PMC10331698
# ± gives the standard deviation of the averaged measurements.
# Assays:
# Experiment in all cases: level (log10 ratio to DMSO vehicle control); higher = higher biomarker level / cell amount than vehicle control
# Settings in all cases: in DMSO
# Perfluoropropanoic acid = compound: O=C(O)C(F)(F)C(F)(F)F [Perfluoropropanoic acid]
# Experimental: (§1)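 BioMAP Diversity Plus panel of 12 human primary cell co-culture systems (3C, 4H, LPS, SAg, BT, BF4T, BE3C, CASM3C, HDF3CGF, KF3CT, MyoF, Mphg). Compounds were added 1 h before stimulation and left for 24 h (MyoF 48 h; BT 72 h for soluble read-outs or 6 d for IgG). Biomarkers were read by ELISA, cytotoxicity by SRB, PBMC viability and proliferation by Alamar Blue. Each well value was divided by the mean of 8 DMSO control wells on the same plate and log10 transformed; duplicate blinded samples were tested at 4 concentrations.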
# [1] = compound: NCC(F)(F)C(F)(F)C(F)(F)C(F)(F)C(F)(F)C(F)(F)C(F)(F)F [1H,1H-Perfluorooctylamine]
# Experimental: as §1
# [2] = compound: FC(F)(F)C(F)(C(F)(F)F)C(F)(F)C(F)(F)CC1CO1 [3-(Perfluoro-3-methylbutyl)-1,2-propenoxide]
# Experimental: as §1
# Perfluorodecanoic acid = compound: O=C(O)C(F)(F)C(F)(F)C(F)(F)C(F)(F)C(F)(F)C(F)(F)C(F)(F)C(F)(F)C(F)(F)F [Perfluorodecanoic acid]
# Experimental: as §1
# [3] = compound: O=C(O)C(F)(F)C(F)(F)C(F)(F)OC(F)(C(F)(F)F)C(F)(F)F [Perfluoro-4-isopropoxybutanoic acid]
# Experimental: as §1
# Perfluoro-1-iodohexane = compound: FC(F)(F)C(F)(F)C(F)(F)C(F)(F)C(F)(F)C(F)(F)I [Perfluoro-1-iodohexane]
# Experimental: as §1
# [4] = compound: COC(=O)CCC(F)(F)C(F)(F)C(F)(F)C(F)(F)F [Methyl 2H,2H,3H,3H-perfluoroheptanoate]
# Experimental: as §1
Test System,level (log10) (Perfluoropropanoic acid; 6700 nM),level (log10) (Perfluoropropanoic acid; 20000 nM),level (log10) (Perfluoropropanoic acid; 60000 nM),level (log10) ([1]; 6700 nM),level (log10) ([1]; 20000 nM),level (log10) ([1]; 60000 nM),level (log10) ([2]; 6700 nM),level (log10) ([2]; 20000 nM),level (log10) (Perfluorodecanoic acid; 6700 nM),level (log10) (Perfluorodecanoic acid; 20000 nM),level (log10) ([3]; 6700 nM),level (log10) ([3]; 20000 nM),level (log10) ([3]; 60000 nM),level (log10) (Perfluoro-1-iodohexane; 6700 nM),level (log10) (Perfluoro-1-iodohexane; 20000 nM),level (log10) (Perfluoro-1-iodohexane; 60000 nM),level (log10) ([4]; 6700 nM),level (log10) ([4]; 20000 nM),level (log10) ([4]; 60000 nM)
BF4T:CCL2/MCP-1,-0.0125 ± 0.011,-0.0095 ± 0.005,0.061 ± 0.083,0.005 ± 0.02,-0.013 ± 0.0071,-0.009 ± 0.033,-0.011 ± 0.011,-0.0035 ± 0.0092,-0.043 ± 0.03,-0.484 ± 0.11,0.0235 ± 0.046,0.0325 ± 0.084,0.045 ± 0.078,-0.002 ± 0.025,-0.024 ± 0.025,-0.0315 ± 0.028,-0.0105 ± 0.019,-0.0245 ± 0.039,-0.002 ± 0.0085
BF4T:CCL26/Eotaxin-3,-0.004 ± 0.031,-0.0105 ± 0.04,0.03 ± 0.044,0.0175 ± 0.049,-0.0085 ± 0.016,0.037 ± 0.037,0.012 ± 0.028,-0.0095 ± 0.016,-0.083 ± 0.038,-0.509 ± 0.029,-0.0055 ± 0.09,-0.0185 ± 0.069,-0.0105 ± 0.016,0.0255 ± 0.0035,0.0135 ± 0.015,-0.0145 ± 0.059,-0.0095 ± 0.005,-0.0175 ± 0.0092,-0.016 ± 0.0042
BF4T:CD54/ICAM-1,0.006 ± 0.021,-0.0045 ± 0.047,0.018 ± 0.027,0.0025 ± 0.0021,-0.0045 ± 0.00071,0.0075 ± 0.0021,0.0005 ± 0.018,-0.011 ± 0.021,-0.0305 ± 0.0064,-0.181 ± 0.011,-0.0095 ± 0.021,-0.007 ± 0.0057,-0.0115 ± 0.013,-0.004 ± 0.0057,0.0045 ± 0.013,0 ± 0.0057,-0.025 ± 0.034,-0.0195 ± 0.019,-0.026 ± 0.027
BF4T:CD90,-0.003 ± 0.014,0.003 ± 0.0014,0 ± 0.016,0.015 ± 0.021,0.009 ± 0.0014,0.0065 ± 0.012,-0.0175 ± 0.00071,-0.0165 ± 0.03,0.003 ± 0.0042,-0.0955 ± 0.0064,-0.002 ± 0.0057,-0.025 ± 0.0028,-0.0075 ± 0.012,-0.0085 ± 0.0035,-0.002 ± 0.018,-0.002 ± 0.011,-0.009 ± 0.011,-0.0045 ± 0.0064,-0.032 ± 0.013
BF4T:CD106/VCAM-1,-0.021 ± 0.065,0.003 ± 0.072,0.026 ± 0.095,0.002,0.0045 ± 0.00071,0.0215 ± 0.032,0.0025 ± 0.03,0.0425 ± 0.032,-0.026 ± 0.0085,-0.311 ± 0.0042,-0.042,-0.035 ± 0.02,-0.0065 ± 0.037,-0.0055 ± 0.0035,-0.0215 ± 0.0035,-0.0745 ± 0.019,-0.001 ± 0.02,0.002 ± 0.0028,0.0015 ± 0.0064
BF4T:CXCL8/IL-8,0.043 ± 0.037,0.033 ± 0.035,0.046 ± 0.052,0.039 ± 0.021,0.009 ± 0.014,0.039 ± 0.0085,0.0045 ± 0.015,0.014 ± 0.03,0.0395 ± 0.012,-0.293 ± 0.076,0.0025 ± 0.0064,0.0145 ± 0.005,0.0235 ± 0.028,0.0175 ± 0.021,-0.009 ± 0.058,0.016 ± 0.058,0.018 ± 0.018,0.0065 ± 0.0078,0.013 ± 0.037
BF4T:IL-1alpha,-0.0325 ± 0.005,0.002,0.013 ± 0.03,0.001 ± 0.0057,-0.0175 ± 0.0035,0.0065 ± 0.013,-0.016 ± 0.024,0.0185 ± 0.013,-0.0335 ± 0.0035,-0.247 ± 0.28,-0.008 ± 0.018,-0.0245 ± 0.015,-0.012 ± 0.023,-0.0075 ± 0.005,-0.0065 ± 0.012,-0.004 ± 0.0057,-0.0085 ± 0.00071,-0.0185 ± 0.018,0 ± 0.021
BF4T:Keratin 8/18,-0.032 ± 0.0028,-0.004 ± 0.0014,0.027 ± 0.016,-0.0065 ± 0.021,-0.011 ± 0.014,0.0035 ± 0.00071,0.01 ± 0.023,-0.002 ± 0.035,0.011 ± 0.0028,-0.335 ± 0.042,-0.002 ± 0.0014,-0.0115 ± 0.0021,0.0025 ± 0.011,-0.0075 ± 0.067,-0.023 ± 0.016,-0.015 ± 0.088,0.007 ± 0.033,0.0285 ± 0.033,0.0225 ± 0.011
